Measurements: ChEMBL document CHEMBL5550119, “Design, synthesis, and evaluation of formylpiperazine analogs of Ferrostatin-1 as novel improved ferroptosis inhibitors” (Bioorg Med Chem, 2024)
Values after ≈ are worked out from the molar mass of the structure shown. Active and inactive are the calls of the source. The calls are words filed in the database; no cut-off is given here.

Key:
HUVEC [1] = assay: Anti-ferroptosis activity in HUVEC cells assessed as inhibition of erastin-induced ferroptosis by measuring lethality suppression incubated for 24 hrs by SRB assay; format: functional, cell-based; conditions: Homo sapiens
[2] = Solubility of compound in PBS buffer at pH 7.4 at 3.13 to 200 uM incubated for 2 hrs by turbidity based assay; format: physicochemical; conditions: dose 3.13-200 µM
[3] = Antioxidant activity assessed as DPPH radical scavenging activity at 50 uM incubated under dark condition for 30 mins by absorbance based analysis relative to control; format: functional
[4] = Antioxidant activity assessed as DPPH radical scavenging activity incubated under dark condition for 30 mins by absorbance based analysis; format: functional
HUVEC [5] = assay: Anti-ferroptosis activity in erastin-induced HUVEC cells assessed as reduction in cytoplasmic ferrous ion level at 10 uM incubated for 24 hrs by FerroOrange fluorescent probe based fluorescence microscopic analysis; format: functional, cell-based; conditions: Homo sapiens
HUVEC [6] = assay: Anti-ferroptosis activity in erastin-induced HUVEC cells assessed as reduction in ROS level by measuring reduction in DCF fluorescence intensity at 10 uM incubated for 24 hrs by DCFH-DA fluorescent probe based fluorescence microscopic analysis; format: functional, cell-based; conditions: Homo sapiens
HUVEC [7] = assay: Anti-ferroptosis activity in erastin-induced HUVEC cells assessed as reduction in mitochondrial impairment by measuring reduction in number of JC-1 monomers at 10 uM incubated for 24 hrs by JC-1 fluorescent probe based fluorescence microscopic analysis; format: functional, cell-based; conditions: Homo sapiens
HUVEC [8] = assay: Anti-ferroptosis activity in erastin-induced HUVEC cells assessed as increase in GSH level at 10 uM incubated for 24 hrs; format: functional, cell-based; conditions: Homo sapiens
HUVEC [9] = assay: Anti-ferroptosis activity in erastin-induced HUVEC cells assessed as increase in GPX4 protein level at 10 uM incubated for 24 hrs by Western blot analysis; format: functional, cell-based; conditions: Homo sapiens
[10] = Metabolic stability in human liver microsomes assessed as half life at […] incubated for 2 hrs in presence of NADPH by LC-MS/MS analysis; format: ADME, Microsome
[11] = Metabolic stability in rat liver microsomes assessed as half life at […] incubated for 2 hrs in presence of NADPH by LC-MS/MS analysis; format: ADME, Microsome
HUVEC [12] = assay: Anti-ferroptosis activity in erastin-induced HUVEC cells assessed as reduction in malondialdehyde level at 10 uM incubated for 24 hrs; format: functional, cell-based; conditions: Homo sapiens
HUVEC [13] = assay: Anti-ferroptosis activity in erastin-induced HUVEC cells assessed as reduction in lipid peroxidation level at 10 uM incubated for 24 hrs; format: functional, cell-based; conditions: Homo sapiens
HUVEC [14] = assay: Anti-ferroptosis activity in HUVEC cells assessed as inhibition of erastin-induced ferroptosis by measuring lethality suppression at 10 uM incubated for 24 hrs by SRB assay; format: functional, cell-based; conditions: Homo sapiens

Row | solubility kinetic at 2 h [2] [µM] | IC50 [4] [µM] | half-life [10] [min] | half-life [11] [min] | SMILES | EC50 (HUVEC [1]) [µM] | Activity [3] [%] | Activity (HUVEC [5]) | Activity (HUVEC [6]) | Activity (HUVEC [7]) | Activity (HUVEC [8]) | Activity (HUVEC [9]) | Activity (HUVEC [12]) | Activity (HUVEC [13]) | Activity (HUVEC [14])
1 | 20 (≈ 11.8 µg/mL) | 41.3 |  |  | COc1ccc(Br)c(CN2CCN(C(=O)c3ccc(NC4CCCCC4)c(NCc4ccccc4)c3)CC2)c1 | 0.68 | 63.8 |  |  |  |  |  |  |  | 
2 | > 200 | 54.3 | 16.8 | 18.4 | CCOC(=O)c1ccc(NC2CCCCC2)c(N)c1 |  | 52.5 | Active | Active | Active | Active | Active |  |  | 
3 | 6.2 (≈ 2.19 µg/mL) | 46.8 |  |  | CCOC(=O)c1ccc(NC2CCCCC2)c(NCc2ccccc2)c1 |  | 56.4 |  |  |  |  |  |  |  | 
4 | 22.2 (≈ 14.1 µg/mL) | 42.9 |  |  | O=C(c1ccc(NC2CCCCC2)c(NCc2ccccc2)c1)N1CCN(Cc2ccc(-c3ccccc3)c(-c3ccccc3)c2)CC1 | 0.61 | 54 |  |  |  |  |  |  |  | 
5 | 28.6 (≈ 16.6 µg/mL) | 60.8 |  |  | O=C(c1ccc(NC2CCCCC2)c(NCc2ccccc2)c1)N1CCN(Cc2ccc(F)cc2Br)CC1 | 0.73 | 50.5 |  |  |  |  |  |  |  | 
6 | 28.6 (≈ 16 µg/mL) | 28.9 | 50.2 | 35.7 | CS(=O)(=O)c1ccc(CN2CCN(C(=O)c3ccc(NC4CCCCC4)c(NCc4ccccc4)c3)CC2)cc1 | 0.5 | 54 | Active | Active | Active | Active | Active | Active | Active | 
7 |  |  |  |  | CN1CCN(C(=O)c2ccc(NC3CCCCC3)c(NCc3ccccc3)c2)CC1 |  |  |  |  |  |  |  |  |  | inactive
8 | 20 (≈ 9.67 µg/mL) | 43.6 |  |  | O=C(c1ccc(NC2CCCCC2)c(NCc2ccccc2)c1)N1CCN(Cc2ccncc2)CC1 | 0.79 | 55.4 |  |  |  |  |  |  |  | 
